Series [1] concerns β-glucosidase derived from Almond. The series can be described thus: β-Glucosidase inhibition test (pNP-β-Glc hydrolysis). It is filed as biochemical. The note with it: for Activity ratio (pNP-β-glucosidase activity): Almond enzyme, cycloalkyl glucoside 1 mM (table title), no inhibitor = 1.00, pH 5.0, 40° C., 10 minutes. On the procedure: (§1) β-Glucosidase inhibition test was performed as follows. 10 mM p-nitrophenyl-β-glucoside (100 μl, abbreviated as pNP-β-Glc hereinafter), 1 M sodium acetate buffer (pH 5.0, 50 μl), pure water, and 100 mM inhibitor (10 μl) were taken into a short test tube so that the mixture should have a total volume of […], and preincubated at 40° C. for 5 minutes. After the incubation, the obtained mixture was added with 50 μl of enzyme solution diluted to a suitable concentration, and allowed to react at 40° C. After 10 minutes, the enzyme was inactivated by adding 500 μl of 1 M sodium carbonate to the obtained reaction mixture, and the absorbance at 405 nm was measured and used for calculation of the amount of free p-nitrophenol. As the inhibitor, cyclopropylmethyl-β-glucoside (CPAM-β-Glc), cyclopentyl-β-glucoside (CPE-β-Glc), and cyclopentylmethyl-β-glucoside (CPEM-β-Glc) all prepared by the methods of Examples 1 and 2were used. As the β-glucosidase, chromatographically purified preparations derived from Aspergillus niger, Trichoderma viride, and Almond (all from SIGMA) were used.

In series [2] the target is β-glucosidase derived from Aspergillus niger (Aspergillus niger, UniProt A2RAL4). The description is as above. Format: biochemical. The note with it: for Activity ratio (pNP-β-glucosidase activity): cycloalkyl glucoside 1 mM (table title), no inhibitor = 1.00, pH 5.0, 40° C., 10 minutes. On the procedure:
as §1

For series [3], the target named is β-glucosidase derived from Trichoderma viride (Trichoderma viride, UniProt Q6UJY0). The series is described as above. It is filed as biochemical. The note with it: T. viride enzyme. On the procedure:
as §1

The test system of series [4] is rose petal crude enzyme solution (pNP-β-Glc activity). As to the kind of experiment: Inhibition test for rose crude enzyme (pNP-β-Glc activity). Format: biochemical, Rosa gybrida CV. Wendy. On the procedure:
as §1
Only petals (about 70 g) were collected from about ten marketed roses (variety; Rosa gybrida CV. Wendy), added with acetone (500 ml) cooled to −20° C., and pulverized by a homogenizer while cooled with dry ice. The obtained pulverized mixture was filtered through a Buchner funnel put with a No. 2 filter paper sheet, and sufficiently washed with acetone at −20° C. The obtained filtrate was dried in a desiccator under reduced pressure (room temperature, 3 hours) to obtain 6 g of crude enzyme powder. This powder was added to 100 mM sodium phosphate buffer (pH 7.0, 120 ml) and stirred at 4° C. for 3 hours, and the insoluble matter was removed by centrifugation. The filtrate was subjected to ultrafiltration utilizing an ultrafiltration membrane PM-10 (Amicon) to finally afford 15 ml of crude enzyme solution.
In the same manner as in Example 3, the inhibition activity of the CPEM-β-Glc obtained in Example 2 for the pNP-β-Glc activity of the above crude enzyme solution was measured. […]

Series [5] concerns chrysanthemum cut flowers. As to the kind of experiment: Aromatic substance formation inhibition effect in cut flowers (organoleptic test). The following applies: 0.13% (w/v, 5 mM) aqueous solution. It is filed as in vivo. On the procedure: (§2) A 0.13% (w/v, 5 mM) aqueous solution of the CPEM-β-Glc obtained in Example 2 was prepared. The obtained aqueous solution (300 ml) was introduced into an Erlenmeyer flask, and lily, chrysanthemum, and gypsophila were put into it one for each. On the other hand, as control, the flowers were similarly put into water without the CPEM-β-Glc. After 1, 2 and 4 days, organoleptic test was performed by ten expert panelists as for the aroma emitted from these cut flowers.

Series [6] deals with gypsophila cut flowers. The description is as above. Format: in vivo. The following applies: 0.13% (w/v, 5 mM) aqueous solution. The procedure:
as §2

Series [7] deals with lily cut flowers. The series is described as above. It is filed as in vivo. The following applies: 0.13% (w/v, 5 mM) aqueous solution. On the procedure: as §2
[8] abbreviates: cycloalkyl glucoside 1 mM (table title), no inhibitor = 1.00, pH 5.0, 40° C., 10 minutes.

Experimental findings from US6339146B1, “Cycloalkylated beta-glucoside” (Nikon Shokuhin Kako Co., Ltd., priority 1999, dated 2002) are described below.

As to `OC[C@H]1O[C@@H](OCC2CC2)[C@H](O)[C@@H](O)[C@@H]1O` [CPAM-β-Glc, cyclopropylmethyl-β-glucoside], the “Activity ratio (pNP-β-glucosidase activity)” value (shortened to “Activity ratio”) in series [1] came out at 0.86; in series [2] (A. niger enzyme), 0.94; in series [3] (setting [8]), 1.01.

Consider `OC[C@H]1O[C@@H](OC2CCCC2)[C@H](O)[C@@H](O)[C@@H]1O` [CPE-β-Glc, cyclopentyl-β-glucoside], for which the “Activity ratio” value in series [1] was 0.90; in series [2] (A. niger enzyme), 0.92; in series [3] (setting [8]) it was 1.06.

Consider `OCC1OC(OCC2CCCC2)C(O)C(O)C1O` (stereo not drawn) [CPEM-β-Glc, cyclopentylmethyl-β-glucoside], for which the “Activity ratio” value in series [1] was found to be 0.27. Also, the “Inhibition of β-glucosidase (in words)” value is reported as “strongly inhibited” in series [1] (almond enzyme, inhibitor concentration of 1.25 mM); “relatively weak inhibition” in series [2] (A. niger enzyme, inhibitor concentration of 1.25 mM); “no inhibition” in series [3] (inhibitor concentration of 1.25 mM). Moreover, the “Difference in 50% inhibition concentration, almond versus A. niger and T. viride β-glucosidases” value in series [1] (ratio of 50% inhibition concentrations) was “about 70 times”. The IC50 in series [1] (β-glucosidase derived from almond, concentration varied from 0 to 5 mM, read-out: 50% inhibition concentration) is 170 µM. The activity at 1000 µM was found to be 99% in series [2] (10 min, pH 5, read-out: Activity ratio (pNP-β-glucosidase activity)) and 105% in series [3] (10 min, cycloalkyl glucoside 1 mM (table title), no inhibitor = 1.00, pH 5.0, 40° C., 10 minutes, read-out: Activity ratio (pNP-β-glucosidase activity)). The “Inhibition activity for pNP-β-Glc activity of rose crude enzyme” value is recorded as “about 50%” in series [4] (at 3 mM), “about 70%” in series [4] (at 4 mM) and “about 90%” in series [4] (at 5 mM). For the same molecule, the “Freshness of the cut flowers” value in series [5] (added versus not added), in series [6] (added versus not added) and in series [7] (added versus not added) was “No difference” in each case. Moreover, the “Aroma emitted from cut flowers (organoleptic test, ten expert panelists)” value in series [5] (after one day, versus water) is listed as “distinctly reduced”; in series [6] (after one day, versus water), “distinctly reduced”; in series [7] (after one day, versus water) it was “distinctly reduced”.
